Results as given in patent US7129238B2, “Mandelic acid derivatives” (Hoffmann-La Roche Inc., priority 2002, dated 2006).
Counter-ions that a name gives are not always drawn.

target: T1, factor VIIa/tissue factor complex (Homo sapiens, UniProt P08709); assay: inhibition of the amidolytic activity of factor VIIa/tissue factor complex (chromogenic peptide substrate); assay type: biochemical; conditions: soluble factor VIIa, substrate Chromozym-tPA, pH 7.5, room temperature
T1 construct: 9 nM of soluble factor VIIa
Description: The measurements were carried out by an automated robotic assay on microtitre plates at room temperature. To this end, 100 μL of a solution of 26 nM of tissue factor, 9 nM of soluble factor VIIa and 8 mM of calcium chloride were added to 25 μL of a solution of the inhibitor in a buffer [pH 7.5, 100 mM, comprising 0.14M NaCl, 0.1M N-(2-hydroxyethyl)piperazine-N′-(2-ethanesulphonic acid) (HEPES), 0.5 mg/l of fatty-acid-free BSA (bovine serum albumin) and 0.05% NaN3] in each well of the plate. After an incubation time of 15 minutes the reaction was started by the addition of 50 μl of chromogenic substrate Chromozym-tPA (3.5 mM, MeSO2-D-Phe-Gly-Arg-paranitroanilide) and the hydrolysis of the substrate was followed spectrophotometrically on a kinetic microtitre plate reader over 10 minutes. Using the plot of the inhibition curves, the Ki values were determined according to the method described in Biochem. J. 55, 1953, 170–171.

T1 sequence (P08709 213-466 limits assumed): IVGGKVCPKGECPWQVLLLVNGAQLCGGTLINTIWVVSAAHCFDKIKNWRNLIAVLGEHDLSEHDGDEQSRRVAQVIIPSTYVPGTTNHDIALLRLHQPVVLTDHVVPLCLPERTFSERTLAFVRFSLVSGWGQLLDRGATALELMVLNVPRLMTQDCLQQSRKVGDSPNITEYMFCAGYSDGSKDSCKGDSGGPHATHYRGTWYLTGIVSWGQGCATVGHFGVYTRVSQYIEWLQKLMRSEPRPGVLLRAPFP
T1 sequence (P08709 61-212 limits assumed): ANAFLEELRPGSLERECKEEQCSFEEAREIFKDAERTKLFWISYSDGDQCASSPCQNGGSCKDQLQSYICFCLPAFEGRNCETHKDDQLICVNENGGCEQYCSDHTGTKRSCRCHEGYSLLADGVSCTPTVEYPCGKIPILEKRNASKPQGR
T1 sequence (P13726 33-295 partner): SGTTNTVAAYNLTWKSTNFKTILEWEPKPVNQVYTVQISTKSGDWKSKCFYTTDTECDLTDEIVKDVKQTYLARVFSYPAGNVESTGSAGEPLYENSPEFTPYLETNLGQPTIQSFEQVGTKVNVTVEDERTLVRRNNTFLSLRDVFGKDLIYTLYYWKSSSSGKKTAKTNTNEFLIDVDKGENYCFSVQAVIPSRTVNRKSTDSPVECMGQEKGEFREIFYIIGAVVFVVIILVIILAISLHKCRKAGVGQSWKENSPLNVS

Compound	Ki
COc1cc(F)c(C(OC)C(=O)NCc2ccc(C(=N)N)cc2)cc1OC (racemic) [Example 24.3, (RS)-N-(4-carbamimidoyl-benzyl)-2-(2-fluoro-4,5-dimethoxy-phenyl)-2-methoxy-acetamide hydrochloride]	2210 nM
CCOc1ccc(C(OC)C(=O)NCc2ccc(C(=N)N)cc2)c(F)c1OCC (racemic) [Example 33.3, (RS)-N-(4-carbamimidoyl-benzyl)-2-(3,4-diethoxy-2-fluoro-phenyl)-2-methoxy-acetamide hydrochloride]	490 nM
COc1ccc2cc(C(OC)C(=O)NCc3ccc(C(=N)N)cc3)ccc2c1 (racemic) [Example 53.3, (RS)-N-(4-carbamimidoyl-benzyl)-2-methoxy-2-(6-methoxy-naphthalen-2-yl)-acetamide hydrochloride]	2260 nM
COC(C(=O)NCc1ccc(C(=N)N)cc1)c1ccc(OCCc2ccc(F)cc2)cc1F (racemic) [Example 72.2, (RS)-N-(4-carbamimidoyl-benzyl)-2-{2-fluoro-4-[2-(4-fluoro-phenyl)-ethoxy]-phenyl}-2-methoxy-acetamide hydrochloride]	2100 nM
CCOC(C(=O)NCc1ccc(C(=N)N)cc1OCC(N)=O)c1c(F)cc(OC)cc1F (racemic) [Example 126.3, (RS)-N-(4-carbamimidoyl-2-carbamoylmethoxy-benzyl)-2-(2,6-difluoro-4-methoxy-phenyl)-2-ethoxy-acetamide hydrochloride]	20 nM
CCOC(C(=O)NCc1ccc(C(=N)N)cc1OCC(=O)NCCOC)c1c(F)cc(OC)cc1F (racemic) [Example 129, (RS)-N-{4-Carbamimidoyl-2-[(2-methoxy-ethylcarbamoyl)-methoxy]-benzyl}-2-(2,6-difluoro-4-methoxy-phenyl)-2-ethoxy-acetamide hydrochloride]	21 nM
COc1cc(F)c(C(OC)C(=O)NCc2ccc(C(=N)N)cc2OCc2ccccn2)c(F)c1 (racemic) [Example 141, (RS)-N-[4-carbamimidoyl-2-(pyridin-2-ylmethoxy)-benzyl]-2-(2,6-difluoro-4-methoxy-phenyl)-2-methoxy-acetamide hydrochloride]	44 nM
CCOC(C(=O)NCc1ccc(C(=N)N)cc1)c1c(F)cc(-c2cnc(N)nc2)cc1F (racemic) [Example 266, (RS)-2-[4-(2-Amino-pyrimidin-5-yl)-2,6-difluoro-phenyl]-N-(4-carbamimidoyl-benzyl)-2-ethoxy-acetamide hydrochloride]	242 nM
CCOC(C(=O)NCc1ccc(C(=N)N)cc1)c1c(F)cc(-c2cccnc2)cc1F (racemic) [Example 267, (RS)-N-(4-Carbamimidoyl-benzyl)-2-(2,6-difluoro-4-pyridin-3-yl-phenyl)-2-ethoxy-acetamide hydrochloridr]	371 nM
CCOC(C(=O)NCc1ccc(C(=N)N)cc1)c1c(F)cc(-c2ccc(N)cn2)cc1F (racemic) [Example 269, (RS)-2-[4-(5-Amino-pyridin-2-yl)-2,6-difluoro-phenyl]-N-(4-carbamimidoyl-benzyl)-2-ethoxy-acetamide hydrochloride]	320 nM
CCOC(C(=O)NCc1ccc(C(=N)N)cc1)c1c(F)cc(-c2ccc(N)nc2)cc1F (racemic) [Example 271, (RS)-(2-[4-(6-Amino-pyridin-3-yl)-2,6-difluoro-phenyl]-N-(4-carbamimidoyl-benzyl)-2-ethoxy-acetamide hydrochloride]	154 nM
CCOC(C(=O)NCc1ccc(C(=N)N)cc1)c1c(F)cc(OCc2ccccn2)cc1F (racemic) [Example 294.2, (RS)-N-(4-carbamimidoyl-benzyl)-2-[2,6-difluoro-4-(pyridin-2-ylmethoxy)-phenyl]-2-ethoxy-acetamide hydrochloride]	586 nM
CCOC(C(=O)NCc1ccc(C(=N)N)cc1NCc1ccccc1)c1ccc(OC)cc1F (racemic) [Example 323, (RS)-N-(2-Benzylamino-4-carbamimidoyl-benzyl)-2-ethoxy-2-(2-fluoro-4-methoxy-phenyl)-acetamide acetate]	65 nM
CCOC(C(=O)NCc1ccc(C(=N)N)cc1NCC(=O)O)c1ccc(OC)cc1F (racemic) [Example 329, (RS)-(5-carbamimidoyl-2-j [2-ethoxy-2-(2-fluoro-4-methoxy-phenyl)-acetylamino]-methyl)-phenylamino)-acetic acid acetate]	121 nM
CCOC(C(=O)NCc1c(F)cc(C(=N)N)cc1F)c1c(F)cc(-c2ccc(N)nc2)cc1F (racemic) [Example 336.2, (RS)-2-[4-(6-amino-pyridin-3-yl)-2,6-difluoro-phenyl]-N-(4-carbamimidoyl-2,6-difluoro-benzyl)-2-ethoxy-acetamide acetate]	598 nM
(RS)-(4-carbamimidoyl-2-carbamoylmethoxy-benzyl)-2-[2,6-difluoro-4-(pyridin-2-ylmethoxy)-phenyl]-2-ethoxy-acetamide hydrochloride [Example 335.5]	17 nM
(RS)-{4-Carbamimidoyl-2-[(pyridin-2-ylmethyl)-amino]-benzyl}-2-ethoxy-2-(2-fluoro-4-methoxy-phenyl)-acetamide hydrochloride [Example 325]	77 nM
